US9850300B2, “Compositions and methods relating to inhibiting cancer cell growth and/or proliferation” (The Regents of the University of Michigan, priority 2013, dated 2017)
“Also recorded” adds a separate entry of the source.

Columns and labels:
Assay type in all cases: cell-based
[1] = test system: SKOV3 cells; assay: EGFL6-mediated cell proliferation, RGE mutation or Echistatin pretreatment; settings: for proliferative effect on cancer cells: RGD-to-RGE mutated EGFL6 vs EGFL6, SKOV3
Method: To determine if EGFL6 signaling on cancer cells is via integrin bind, an EGFL6 protein with an […] mutation (EGFL6^RGE) was generated. […] Similarly, pretreatment of SKOV3 cells with the integrin β1/β3 inhibitor Echistatin blocked both EGFL6-mediated cancer cell proliferation and the decrease in ALDH^+ percentage (FIG. 4B).
(§1) SKOV3, A2008, and A2780 were maintained in RPMI-1640, supplemented with 10% FBS with 1% Penicillin/Streptomycin, and cultured in humidified atmosphere of 5% CO2 at 37° C. For all in vitro cell culture experiments, isolated cells were allow to recover overnight following FACS, prior to treatment. Infantile Hemangioma Stem cells were maintained in EBM-2 medium with growth factor supplement cocktails in culture plates coated with fibronectin. For Echistatin and EGFL6 treatment, cells were pretreated with Echistatin (Sigma, 100 nM) for 24 hours prior to EGFL6 treatment. All transfections were performed using FuGene6 reagent (Promega) per company protocol.

[2] = test system: ALDH+ CSCs in SKOV3 cells; assay: ALDH+ cell percentage and number (ALDEFLUOR FACS); settings: Echistatin 100 nM pretreatment 24 hours or EGFL6 antibody 5 μg/ml, then EGFL6
Source text: It has been shown that aldehyde dehydrogenase enzymatic activity (ALDH) is an excellent marker of ovarian CSCs in SKOV3 cells and primary patient samples (see, e.g., Silva, I. A., et al. Cancer Res (2011); Landen, C. N., Jr., et al. Mol Cancer Ther 9, 3186-3199 (2010); Steg, A. D., et al. Clin Cancer Res 18, 869-881 (2012); Kryczek, I., et al. Int J Cancer 130, 29-39 (2012); Deng, S., et al. PLoS ONE 5, e10277 (2010)). The impact of EGFL6 treatment on the percentage of ALDH^+ CSCs in vitro was next assessed. […] However, given the increase in total cell numbers, the absolute ALDH^+ CSC number remained unchanged (FIG. 3Aiii). […] Human ovarian cancer ascites cells were also treated with EGFL6 in a tumor sphere assay. Once again, treatment with EGLF6 was associated with a reduction in ALDH^+ cell percentages in tumor spheres (FIG. 3B).
as §1
FACS assay was performed as previously described (see, e.g., Silva, I. A., et al. Cancer Res (2011)). Briefly, SKOV3 cells or primary ovarian tumor/ascetics cells were stained for ALDH using ALDEFLUOR kit per company protocol (Stem Cell Technologies). DAPI staining was used to exclude non-viable cells. For FACS cell sorting, equal number of ALDH and ALDH^(−) cells were collected for subsequent experiments.
EGFL6 monoclonal antibody producing hybridoma cells were maintained in RPMI medium supplemented with 10% FBS. For antibody purification, the cells were cultured in reduced FBS (5%). […]

[3] = test system: phosphorylation of SHP2, ERK, FAK and SRC in SKOV3 cells; assay: Western blot of EGFL6 mediated signal activation; settings: for p-SHP2 levels: treatment of ALDH+ SKOV3 cells
Method: Lastly, EGFL6 mediated signal activation was evaluated. Integrin signaling has been reported to induce the […] of FAK, SRC and SHP2 among others. […] Phosphorylation of all of these proteins could be blocked with Echistatin.
Cellular signaling changes associated with EGFL6 was next examined. […] EGFL6 treatment was associated with increased p-SHP2 levels specifically in ALDH^+ cells (FIG. 4Ei). […] SHP2 phosphorylation could be blocked with Echistatin (FIG. 4Eiii) or an EGFL6-blocking antibody. SHP2 phosphorylation was associated with increased p-ERK levels (4Ei-iii).
as §1
EGFL6 monoclonal antibody producing hybridoma cells were maintained in RPMI medium supplemented with 10% FBS. For antibody purification, the cells were cultured in reduced FBS (5%). Culture supernatant was collected and cell debris was removed by centrifugation. EGFL6 antibody was pulled down using Protein G Agarose heeds, Fast Flow (Millipore), washed and eluded with 50 mM glycine PH.2.7. Antibody solution was immediately neutralized to PH 7.2-7.4 with Tris (Ph 9.0, final concentration 25 mM). NaCl was added to final concentration of 150 mM. EGFL6 antibody was applied at 5 μg/ml for in vitro cell treatment and 50 μg/mouse for in vivo treatment.

Q: What does the source list for Echistatin [reference compound]?
A: blockade of EGFL6-mediated cancer cell proliferation ([1]; Echistatin pretreatment, SKOV3): blocked; blockade of EGFL6-mediated reduction in ALDH+ cell percentages [2]: inhibited the effect of EGFL6; also recorded: blocked; also recorded: inhibits; blockade of EGFL6-induced phosphorylation of SHP2, FAK and SRC ([3]; Echistatin pretreatment): blocked; blockade of EGFL6-mediated ERK phosphorylation ([3]; with EGFL6 treatment): suppressed; blockade of EGFL6-mediated SHP2 phosphorylation ([3]; with EGFL6 treatment): blocked; also recorded: suppressed

B1: EGFL6^RGE: EGFL6 protein with an RGD-to-RGE mutation of the integrin binding motif (protein)
chain: NAASARHHGLLASARQPGVCHYGTKLACCYGWRRNSKGVCEATCEPGCKFGECVGPNKCRCFPGYTGKTCSQDVNECGMKPRPCQHRCVNTHGSYKCFCLSGHMLMPDATCVNSRTCAMINCQYSCEDTEEGPQCLCPSSGLRLAPNGRDCLDIDECASGKVICPYNRRCVNTFGSYYCKCHIGFELQYISGRYDCIDINECTMDSHTCSHHANCFNTQGSFKCKCKQGYKGNGLRCSAIPENSVKEVLRAPGTIKDRIKKLLAHKNSMKKKAKIKNVTPEPTRTPTPKVNLQPFNYEEIVSRGGNSHGGKKGNEEKMKEGLEDEKREEKALKNDIEERSLRGEVFFPKVNEAGEFGLILVQRKALTSKLEHKDLNISVDCSFNHGICDWKQDREDDFDWNPADRDNAIGFYMAVPALAGHKKDIGRLKLLLPDLQPQSNFCLLFDYRLAGDKVGKLRVFVKNSNNALAWEKTTSEDEKWKTGKIQLYQGTDATKSIIFEAERGKGKTGEIAVDGVLLVSGLCPDSLLSVDD
Q: How did the “proliferative effect on cancer cells” value [1] turn out when B1 was run?
A: The value was “eliminated the proliferative effects”.

Q: What about the “proliferative effect on cancer cells” value ([1]; listed as EGFL6-RGE mutant) of the same molecule?
A: Its value is “suppressed”.

Q: What about the p-SHP2 levels [3] of the same molecule?
A: Its p-SHP2 levels is “did not increase”.

Q: What about the p-SHP2 levels ([3]; listed as EGFL6-RGE mutant) of the same molecule?
A: The p-SHP2 levels was “does not increase”.

Q: And the p-ERK levels ([3]; treatment of ALDH+ and ALDH(−) cells)?
A: The p-ERK levels was “does not increase”.
